Reference: article PMC12655518, “Screening Novel Furoxan Derivatives as Potential Inhibitors Targeting Thioredoxin Glutathione Reductase of Fasciola gigantica” (Pharmaceuticals, 2025)
Like-named read-outs stand apart in the source and are kept apart here.

Columns and labels:
FgTGRsec (TrxR activity) [1] = target: T1, FgTGRsec (TrxR activity) (Fasciola gigantica, UniProt A0A0K1NYF8); parameters: method as in PMID 29526505; conditions: cited from earlier work
FgTGRsec (GR activity) = tested on: FgTGRsec (GR activity); parameters: method as in PMID 29526505; conditions: cited from earlier work
[2] = tested on: Taenia crassiceps cysticerci; parameters: method as in PMID 20431894; conditions: cited from earlier work
FgTGRsec (TrxR activity) [3] = target: T1, FgTGRsec (TrxR activity); test: DTNB-based TrxR activity inhibition assay of FgTGRsec; assay type: biochemical; conditions: DTNB reduction, 20 min incubation, triplicate, read-out: IC50 of rFgTGRsec
Protocol: The TrxR activity of FgTGR and FgTGRsec was determined by using the 5, 5′-diothiobis (2-nitrobenzoic acid, DTNB, 4 mg/mL) (Sigma, St. Louis, MO, USA) reduction assay at room temperature. The reaction mixture was composed of 180 μL working buffer (0.1 mM potassium phosphate, pH 7.0, 10 mMEDTA, 100 μM β-nicotinamide adenine dinucleotide phosphate (NADPH) (Sigma)), 4 μL assay buffer (0.1 mM potassium phosphate, pH 7.0, 10 mM EDTA), 6 μL DTNB, and 10 μL rFgTGR or rFgTGRsec (600 μg/mL). The reaction was initiated by the adding DTNB at concentrations ranging from 100 μmol/L to 1000 μmol/L. An increase in absorbance at 412 nm was observed within the first 2 min. One unit of thioredoxin reductase (TrxR) activity was defined as the amount of enzyme that catalyzes the production of 1 μmol of 2-nitro-5-thiobenoic acid (TNB) per minute at room temperature. The reaction mixture without FgTGR or FgTGRsec was used as a negative control, and the processes of the negative experiments were the same as the above description.
To evaluate the effect of furoxan derivatives on FgTGRsec, the activity of TrxR was measured. The furoxan derivatives were soluble in dimethyl sulfoxide (DMSO), and seven concentrations of each derivative were prepared based on their distinct structures. For the DTNB-based TrxR activity inhibition assay, reaction mixtures were prepared as described in the TrxR activity assay protocol. The components were incubated for 20 min, after which the reaction was initiated by adding DTNB. The increase in absorbance at 412 nm was measured to evaluate the inhibitory effect of each furoxan derivative. The half-maximal inhibitory concentration (IC50) values of the compounds were calculated by GraphPad Prism v6.0c software. The reaction without FgTGRsec and furoxan derivatives served as the blank control, while the reaction with furoxan was the positive control. All assays were performed in triplicate.

SjTGRsec (TrxR activity) = tested on: SjTGRsec (TrxR activity); parameters: method as in PMID 33902686; conditions: S. japonicum, result in words; cited from earlier work

T1 sequence (A0A0K1NYF8 entry or part of it): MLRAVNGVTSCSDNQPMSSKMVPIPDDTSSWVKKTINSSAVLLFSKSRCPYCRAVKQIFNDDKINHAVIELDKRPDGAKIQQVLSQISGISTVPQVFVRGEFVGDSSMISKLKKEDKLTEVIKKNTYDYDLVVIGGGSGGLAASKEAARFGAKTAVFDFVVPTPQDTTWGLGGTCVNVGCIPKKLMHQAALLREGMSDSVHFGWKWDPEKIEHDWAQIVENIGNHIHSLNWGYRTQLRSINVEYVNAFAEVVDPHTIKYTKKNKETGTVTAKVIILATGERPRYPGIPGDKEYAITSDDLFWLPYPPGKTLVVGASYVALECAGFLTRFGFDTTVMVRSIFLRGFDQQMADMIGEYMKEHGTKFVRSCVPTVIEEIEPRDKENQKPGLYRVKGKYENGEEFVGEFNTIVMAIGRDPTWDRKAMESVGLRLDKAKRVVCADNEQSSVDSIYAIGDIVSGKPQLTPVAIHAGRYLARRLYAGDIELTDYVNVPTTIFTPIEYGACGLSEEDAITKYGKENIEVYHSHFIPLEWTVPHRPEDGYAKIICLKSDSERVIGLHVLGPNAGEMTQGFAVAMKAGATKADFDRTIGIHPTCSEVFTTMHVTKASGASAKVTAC

Row | Compound | IC50 (FgTGRsec (TrxR activity) [3]) [µM] | further results
1 | CC(=O)OC[C@H]1O[C@@H]([S-])[C@H](OC(C)=O)[C@@H](OC(C)=O)[C@@H]1OC(C)=O.CCP(CC)CC.[Au+] [AF, auranofin] |  | IC50 (FgTGRsec (TrxR activity) [1]): 0.87 µM; IC50 (FgTGRsec (GR activity)): 8.3 µM; IC50 ([2]; Taenia crassiceps cysticerci cultured with AF for 12 h): 3.8 µM; survival of cysticerci ([2]; after culturing with AF for 12 h): all dead
2 | [O-][n+]1onc(-c2cccnc2)c1CO [LGM-1] | 6.93 ± 1.74 | 
3 | [O-][n+]1onc(-c2ccncc2)c1CO [LGM-2] | 15.2 ± 0.8 | 
4 | [O-][n+]1onc(-c2cccc(Cl)c2)c1CO [ZWJ-19] | 3.82 ± 0.33 | 
5 | [O-][n+]1onc(-c2ccc(C(F)(F)F)nc2)c1CO [LGM-35] | 4.5 ± 0.35 | inhibition of TrxR activity (SjTGRsec (TrxR activity)): most significant inhibition
6 | [O-][n+]1onc(-c2ccc(C(F)(F)F)cc2)c1CN1CCN(c2ccccc2F)CC1 [CH-33] | 18.5 ± 2.57 | 
